Our source for the kinact/KI values is patent US5952321A, “Substituted azetidinones as anti-inflammatory and antidegenerative agents” (Merck & Co., Inc., priority 1996, dated 1999).

Like-named read-outs stand apart in the source and are kept apart here.

The test has as its target T1, Human Polymorphonuclear Leukocyte Elastase (Homo sapiens, UniProt P08246).
T1 sequence (P08246 30-267): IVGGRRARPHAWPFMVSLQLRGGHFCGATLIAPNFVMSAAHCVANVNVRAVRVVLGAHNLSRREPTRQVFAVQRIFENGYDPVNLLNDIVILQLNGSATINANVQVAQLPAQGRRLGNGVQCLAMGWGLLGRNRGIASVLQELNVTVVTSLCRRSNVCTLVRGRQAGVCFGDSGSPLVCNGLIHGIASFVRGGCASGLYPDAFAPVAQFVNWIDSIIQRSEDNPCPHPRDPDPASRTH
The experiment in a line: Inhibition of human polymorphonuclear leukocyte elastase via hydrolysis of Boc-AAPAN or Boc-AAPVN. Type of test: biochemical. Conditions: second order rate constant for inactivation of the enzyme, read-out: Kobs /[I]. The procedure: Enzyme Assays for the Inhibition of Human Polymorphonuclear Leukocyte Elastase Via Hydrolysis of N-t-Boc-alanyl-alanyl-prolylalanine-p-nitroanilide (Boc-AAPAN) or […] (Boc-AAPVN) Reagent:
0.05M TES (N-tris[hydroxymethyl]methyl-2-amino-ethanesulfonic acid) Buffer, pH 7.5.
0.2 mM Boc-AAPAN or Boc-AAPVN.
To prepare substrate, the solid was first dissolved in 10.0 ml DMSO. Buffer at pH 7.5 was then added to a final volume of 100 ml.
Crude extract of human polymorphonuclear leukocytes (PMN) containing elastase activity.
Inhibitors (azetidinones) to be tested dissolved in DMSO just before use.
To 1.0 ml of 0.2 mM Boc-AAPAN in a cuvette, 0.01-0.1 ml of DMSO with or without inhibitor was added. After mixing, a measurement was taken at 410 mμ to detect any spontaneous hydrolysis due to presence of test compound. 0.05 Milliliters of PMN extract was then added and the ΔOD/min at 410 mμ was measured and recorded. Beckman model 35 spectrophotometer was used.
Results in Tables I to III were reported as ID50, effective dosage in micrograms per milliliter (μg/ml) for 50% inhibition of the enzyme activity 2 minutes after zero time.
Results were also expressed as Ki, the micromolar concentration of the inhibitor (μM) giving 50% of the control enzyme activity; or as ^k obs/I which is the second order rate constant in per mole per second for inactivation of the enzyme.
The elastase activity in the crude PMN extract may vary from one preparation to another. A control of each new batch is run, and the volume added in the assay procedure is adjusted according to activity.

On to `CCC[C@@H](NC(=O)N1C(=O)C(CC)(CC)[C@@H]1Oc1ccc(CN(C)CCN(C)C(=O)N(C)C)cc1)c1ccc(C)cc1` [R4=Me; R5=CH2 CH2 N(Me)CONMe2; R6=H], for which the kinact/KI (pH 7.5, Table I) was determined as 850000 M⁻¹ s⁻¹.
For the compound `CCC[C@@H](NC(=O)N1C(=O)C(CC)(CC)[C@@H]1Oc1ccc(C(C)N2CCC[C@H]2COC)cc1)c1ccc(C)cc1` (single isomer, unassigned) [R4+R5=--CH2 CH2 CH2 CH(S--CH2 OMe)--; R6=Me (isomer A)], for the setting “pH 7.5, Table I”, the kinact/KI was found to be 960000 M⁻¹ s⁻¹.
For `CCC[C@@H](NC(=O)N1C(=O)C(CC)(CC)[C@@H]1Oc1ccc(CN(CC)CCOC)c(Cl)c1)c1ccc(C)cc1`, the kinact/KI (pH 7.5, Table III) amounted to 550000 M⁻¹ s⁻¹.
`CCC[C@@H](NC(=O)N1C(=O)C(CC)(CC)[C@@H]1Oc1ccc(C(COC)N(CC)CC)cc1)c1ccc(C)cc1` (mixture of isomers) [R4=Et; R5=Et; R6=CH2 OMe, 3,3-Diethyl-1-[(R)-α-(n-propyl)-4-(methyl)benzylaminocarbonyl]-4-(S)-[4-{1-(RS)-(N,N-diethylamino)-2-methoxyethyl}phenoxy]azetidin-2-one]: the kinact/KI (pH 7.5, Table I) is 1.1e+06 M⁻¹ s⁻¹.
`CCC[C@@H](NC(=O)N1C(=O)C(CC)(CC)[C@@H]1Oc1ccc(CN(C)CCOC)c(Cl)c1)c1ccc(C)cc1`: where the note is “pH 7.5, Table III”, the kinact/KI came out at 1e+06 M⁻¹ s⁻¹.
For `CCC[C@@H](NC(=O)N1C(=O)C(CC)(CC)[C@@H]1Oc1ccc(CN(C)CCN(C)C(C)=O)cc1)c1ccc(C)cc1` [R4=Me; R5=CH2 CH2 N(Me)Ac; R6=H], the kinact/KI (pH 7.5, Table I) came to 650000 M⁻¹ s⁻¹.
As to `CCC[C@@H](NC(=O)N1C(=O)C(CC)(CC)[C@@H]1Oc1ccc(CNC(=O)Cc2c[nH]cn2)cc1)c1ccc(C)cc1` [R4=H; R5=COCH2-4-imidazolyl; R6=H, (4S)-3,3-Diethyl-1-[(R)-α-(n-propyl)-4-(methyl)benzylaminocarbonyl]-4-[(4-((4-imidazolyl)methylcarbonyl)aminomethyl)phenoxy]azetidin-2-one], for the setting “pH 7.5, Table I”, the kinact/KI turned out to be 850000 M⁻¹ s⁻¹.
As for `CCC[C@@H](NC(=O)N1C(=O)C(CC)(CC)[C@@H]1Oc1ccc(CCCN(CC)CC)cc1)c1ccc(C)cc1` [R4=Et; R5=Et; n=3], the kinact/KI (pH 7.5, Table II) amounted to 540000 M⁻¹ s⁻¹.
`CCC[C@@H](NC(=O)N1C(=O)C(CC)(CC)[C@@H]1Oc1ccc(C(COC)N(C)C(C)C)cc1)c1ccc(C)cc1` (stereo partly shown) [R4=Me; R5=i-Pr; R6=CH2 OMe]: the kinact/KI (pH 7.5, Table I) stood at 800000 M⁻¹ s⁻¹.
On to `CCC[C@@H](NC(=O)N1C(=O)C(CC)(CC)[C@@H]1Oc1ccc(CN(CC)C(C)COC)c(C)c1)c1ccc(C)cc1` (stereo partly shown), for which the kinact/KI (pH 7.5, Table III) worked out at 400000 M⁻¹ s⁻¹.
With `CCC[C@@H](NC(=O)N1C(=O)C(CC)(CC)[C@@H]1Oc1ccc(CN2CCSC2)cc1)c1ccc(C)cc1` [R4+R5=--CH2 CH2 SCH2 --; R6=H], the kinact/KI (pH 7.5, Table I) was 940000 M⁻¹ s⁻¹.
Same read-out and setting: with `CCC[C@@H](NC(=O)N1C(=O)C(CC)(CC)[C@@H]1Oc1ccc(C(CC)N(C)CCOC)cc1)c1ccc(C)cc1` (stereo partly shown) [R4=Me; R5=CH2 CH2 OMe; R6=Et] the figure was 550000 M⁻¹ s⁻¹; with `CCC[C@@H](NC(=O)N1C(=O)C(CC)(CC)[C@@H]1Oc1ccc(CN(C)CCOC)cc1)c1ccc(C)cc1` [R4=Me; R5=CH2 CH2 OMe; R6=H, (4S)-3,3-Diethyl-1-[(R)-α-n-propyl-(4-methyl)benzylaminocarbonyl]-4-[(4-(2-methoxyethyl)methylaminomethyl)phenoxyl]azetidin-2-one], 440000 M⁻¹ s⁻¹.
In the case of `CCC[C@@H](NC(=O)N1C(=O)C(CC)(CC)[C@@H]1Oc1ccc(C(COC)N(C)C)cc1)c1ccc(C)cc1` (mixture of isomers) [R4=Me; R5=Me; R6=CH2 OMe, 3,3-Diethyl-1-[(R)-α-(n-propyl)-4-(methyl)benzylaminocarbonyl]-4-(S)-[4-{1-(RS)-(N,N-dimethylamino)-2-methoxyethyl}phenoxy]azetidin-2-one], the kinact/KI (pH 7.5, Table I) stood at 1.28e+06 M⁻¹ s⁻¹.
As to `CCC[C@@H](NC(=O)N1C(=O)C(CC)(CC)[C@@H]1Oc1ccc(CN(CC)CCOC)cc1)c1ccc(OC)cc1`, where the note is “pH 7.5, Table III”, the kinact/KI came to 1e+06 M⁻¹ s⁻¹.
As for `CCC[C@@H](NC(=O)N1C(=O)C(CC)(CC)[C@@H]1Oc1ccc(CNC(=O)CN(C)Cc2ccccc2)cc1)c1ccc(C)cc1` [R4=H; R5=COCH2 N(Me)Bn; R6=H], the kinact/KI (pH 7.5, Table I) stood at 1.4e+06 M⁻¹ s⁻¹.
For `CCC[C@@H](NC(=O)N1C(=O)C(CC)(CC)[C@@H]1Oc1ccc(C(COC)N(CCC)CCC)cc1)c1ccc(C)cc1` (stereo partly drawn) [R4=n-Pr; R5=n-Pr; R6=CH2 OMe, 3,3-Diethyl-1-[(R)-α-(n-propyl)-4-(methyl)benzylaminocarbonyl]-4-(S)-[4-{1-(RS)-(di-n-propyl)-2-methoxyethyl}phenoxy]azetidin-2-one], the kinact/KI (pH 7.5, Table I) is 1e+06 M⁻¹ s⁻¹.
Same read-out and setting: with `CCC[C@@H](NC(=O)N1C(=O)C(CC)(CC)[C@@H]1Oc1ccc(CN2CCC[C@H]2CO)cc1)c1ccc(C)cc1` [R4+R5=--CH2 CH2 CH2 CH(S--CH2 OH); R6=H] the figure was 950000 M⁻¹ s⁻¹; with `CCC[C@@H](NC(=O)N1C(=O)C(CC)(CC)[C@@H]1Oc1ccc(CN2CCOCC2)cc1)c1ccc(C)cc1` [R4+R5=--CH2 CH2 OCH2 CH2 --; R6=H], 820000 M⁻¹ s⁻¹.
Take `CCC[C@@H](NC(=O)N1C(=O)C(CC)(CC)[C@@H]1Oc1ccc(CN2CCN(C(=O)N(C)C)CC2)cc1)c1ccc2c(c1)OCO2` [(4S)-3,3-Diethyl-1-[(R)-α-n-propyl-3,4-methylenedioxy)benzylaminocarbonyl]-4-[(4-((4-diemthylaminocarbonyl)piperazin-1-yl)methyl)phenoxy]azetidin-2-one]: the kinact/KI (pH 7.5, Table III) amounted to 4e+06 M⁻¹ s⁻¹.
As to `CCC[C@@H](NC(=O)N1C(=O)C(CC)(CC)[C@@H]1Oc1ccc(CN(C)C(C)COC)c(OC)c1)c1ccc(C)cc1` (stereo partly shown), where the note is “pH 7.5, Table III”, the kinact/KI is 1.65e+06 M⁻¹ s⁻¹.
Consider `CCC[C@@H](NC(=O)N1C(=O)C(CC)(CC)[C@@H]1Oc1ccc(CN(C)C(C)COC)cc1)c1ccc(C)cc1` (stereo partly shown) [R4=Me; R5=CH(Me)CH2 OMe; R6=H], for which the kinact/KI (pH 7.5, Table I) came out at 1.22e+06 M⁻¹ s⁻¹.
In the case of `CCC[C@@H](NC(=O)N1C(=O)C(CC)(CC)[C@@H]1Oc1ccc(CN(CC)C(C)COC)cc1)c1ccc2occc2c1` (stereo partly shown), the kinact/KI (pH 7.5, Table III) was 1.05e+06 M⁻¹ s⁻¹.
Consider `CCC[C@@H](NC(=O)N1C(=O)C(CC)(CC)[C@@H]1Oc1ccc(C(COC)N2CCCC2)cc1)c1ccc(C)cc1` (mixture of isomers) [R4+R5=--CH2 CH2 CH2 CH2 --; R6=CH2 OMe, 3,3-Diethyl-1-[(R)-α-(n-propyl)-4-(methyl)benzylaminocarbonyl]-4-(S)-[4-{1-(RS)-(1-pyrrolidino)-2-methoxyethyl}phenoxy]azetidin-2-one], for which, under “pH 7.5, Table I”, the kinact/KI worked out at 1.7e+06 M⁻¹ s⁻¹.
For the compound `CCC[C@@H](NC(=O)N1C(=O)C(CC)(CC)[C@@H]1Oc1ccc(C(COC)N(C)C)cc1)c1ccc2c(c1)OCO2` (mixture of isomers) [3,3-Diethyl-1-[(R)-α-(n-propyl)-(3,4-dioxomethylene)benzylaminocarbonyl]-4-(S)-[4-{1-(RS)-(N,N-dimethylamino)-2-methoxyethyl}phenoxy]azetidin-2-one], the kinact/KI (pH 7.5, Table III) turned out to be 1.9e+06 M⁻¹ s⁻¹.
For `CCC[C@@H](NC(=O)N1C(=O)C(CC)(CC)[C@@H]1Oc1ccc(CN(C)CCSC)cc1)c1ccc(C)cc1` [R4=Me; R5=CH2 CH2 SMe; R6=H], the kinact/KI (pH 7.5, Table I) was 675000 M⁻¹ s⁻¹.
The same measure, in the same setting: with `CCC[C@@H](NC(=O)N1C(=O)C(CC)(CC)[C@@H]1Oc1ccc(CN2CCC(O)CC2)cc1)c1ccc(C)cc1` [R4+R5=--CH2 CH2 CH(OH)CH2 CH2 --; R6=H] the figure was 1.15e+06 M⁻¹ s⁻¹; with `CCC[C@@H](NC(=O)N1C(=O)C(CC)(CC)[C@@H]1Oc1ccc(CN2CCC[C@H]2COC)cc1)c1ccc(C)cc1`, 1.55e+06 M⁻¹ s⁻¹.
